Legend:
rat mGluR1a receptor = target: T1, rat mGluR1a receptor (Rattus norvegicus, UniProt P23385); assay: Binding assay for the characterization of mGluR 1 antagonistic properties (displacement of tritiated 1-ethyl-2-methyl-6-oxo-4-(1,1,2-tritritio-1,2,4,5-tetrahydro-benzo[d]azepin-3-yl)-1,6-dihydro-pyrimidine-5-carbonitrile); conditions: membranes of HEK 293 cells transiently transfected with rat mGluR1a, 10 μg protein per assay; radioligand 3 nM; 1 hour at room temperature; read-out: B-IC50
T1 construct: expressed in transfected cells; host or cells: HEK 293 cells, transient transfection; membranes used
Method: Binding Assay for the Characterization of mGluR 1 Antagonistic Properties
Binding assay with tritiated 1-ethyl-2-methyl-6-oxo-4-(1,1,2-tritritio-1,2,4,5-tetrahydro-benzo[d]azepin-3-yl)-1,6-dihydro-pyrimidine-5-carbonitrile: HEK 293 cells were transiently transfected with the rat mGluR1a receptor. The cells were collected and washed 3 times with PBS. The cell pellets were frozen at −80° C. Membranes were prepared from HEK 293 cells transfected with the rat mGluR1a receptor and used in the binding experiments at 10 μg proteins per assay after resuspension in a HEPES NaOH 20 mM, pH=7.4 binding buffer. 1-Ethyl-2-methyl-6-oxo-4-(1,1,2-tritritio-1,2,4,5-tetrahydro-benzo[d]azepin-3-yl)-1,6-dihydro-pyrimidine-5-carbonitrile (S.A. 33.4 Ci/mmol) was used at 3 nM final concentration. The incubation with variable concentrations of potential inhibitors was performed for 1 hour at room temperature, the incubate was then filtered onto GF/B glass fiber filter preincubated 1 hour in PEI 0,1% and washed 3 times with 1 ml of cold binding buffer. The radioactivity retained on the unifilter 96 was counted using a Topcount β counter. After correction for non specific binding the data were normalized and the IC50 value calculated using a 4 parameters logistic equation which was fitted to the inhibition curve.

T1 sequence (P23385 19-1199): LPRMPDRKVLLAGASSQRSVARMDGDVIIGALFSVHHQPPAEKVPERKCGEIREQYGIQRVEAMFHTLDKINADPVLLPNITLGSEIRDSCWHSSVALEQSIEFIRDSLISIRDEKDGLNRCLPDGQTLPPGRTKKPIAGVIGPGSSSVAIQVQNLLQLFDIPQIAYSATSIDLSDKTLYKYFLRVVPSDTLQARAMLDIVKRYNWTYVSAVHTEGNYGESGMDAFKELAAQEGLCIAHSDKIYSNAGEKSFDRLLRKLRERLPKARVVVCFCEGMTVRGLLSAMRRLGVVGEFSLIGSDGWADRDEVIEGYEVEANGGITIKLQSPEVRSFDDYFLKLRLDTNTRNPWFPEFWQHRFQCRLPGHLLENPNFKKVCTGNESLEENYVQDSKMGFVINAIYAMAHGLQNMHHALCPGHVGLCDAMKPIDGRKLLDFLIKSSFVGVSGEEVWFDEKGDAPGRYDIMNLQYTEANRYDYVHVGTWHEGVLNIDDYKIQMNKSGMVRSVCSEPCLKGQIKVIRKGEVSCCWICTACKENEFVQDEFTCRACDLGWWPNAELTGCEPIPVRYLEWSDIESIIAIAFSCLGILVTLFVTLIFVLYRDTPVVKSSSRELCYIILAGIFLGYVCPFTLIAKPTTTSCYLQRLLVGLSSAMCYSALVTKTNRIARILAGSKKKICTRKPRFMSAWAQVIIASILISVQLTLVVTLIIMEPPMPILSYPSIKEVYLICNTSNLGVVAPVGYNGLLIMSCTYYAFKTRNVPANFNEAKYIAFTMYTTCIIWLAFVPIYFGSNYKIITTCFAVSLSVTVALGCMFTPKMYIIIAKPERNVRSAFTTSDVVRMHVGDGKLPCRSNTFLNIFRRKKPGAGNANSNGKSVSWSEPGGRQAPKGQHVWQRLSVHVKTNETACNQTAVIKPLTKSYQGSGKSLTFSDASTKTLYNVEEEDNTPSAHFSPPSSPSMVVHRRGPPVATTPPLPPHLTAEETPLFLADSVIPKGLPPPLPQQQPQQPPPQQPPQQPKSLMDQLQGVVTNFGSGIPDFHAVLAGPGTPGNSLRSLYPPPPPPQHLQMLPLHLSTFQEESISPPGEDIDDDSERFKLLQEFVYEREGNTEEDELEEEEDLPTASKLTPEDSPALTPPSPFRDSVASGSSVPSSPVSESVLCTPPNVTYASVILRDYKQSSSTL

Q: For `Cc1nc(N2CCc3nc(C)sc3CC2)c([N+](=O)[O-])c(=O)[nH]1` [Example 1, 2-methyl-6-(2-methyl-4,5,7,8-tetrahydro-thiazolo[4,5-d]azepin-6-yl)-5-nitro-3H-pyrimidin-4-one], which melting point is on record?
A: > 200 °C

Q: And the IC50 (rat mGluR1a receptor)?
A: 30 µM

Q: With `CCn1c(C)nc(N2CCc3nc(C)sc3CC2)c([N+](=O)[O-])c1=O` [Example 2, 3-Ethyl-2-methyl-6-(2-methyl-4,5,7,8-tetrahydro-thiazolo[4,5-d]azepin-6-yl)-5-nitro-3H-pyrimidin-4-one] as the compound, how does the melting point read?
A: 164.2 to 166.8 °C

Q: With `Cc1nc(N2CCc3nc(N)sc3CC2)c([N+](=O)[O-])c(=O)[nH]1` [Example 3, 6-(2-Amino-4,5,7,8-tetrahydro-thiazolo[4,5-d]azepin-6-yl)-2-methyl-5-nitro-3H-pyrimidin-4-one] as the compound, how does the melting point read?
A: > 200 °C

Q: And the IC50 (rat mGluR1a receptor)?
A: 49 µM

Q: Which melting point does the source give for `CCn1c(C)nc(N2CCc3nc(N)sc3CC2)c([N+](=O)[O-])c1=O` [Example 4, 6-(2-Amino-4,5,7,8-tetrahydro-thiazolo[4,5-d]azepin-6-yl)-3-ethyl-2-methyl-5-nitro-3H-pyrimidin-4-one] here?
A: > 200 °C

Q: What about the IC50 (rat mGluR1a receptor) of the same compound?
A: 6 µM

Q: Which melting point does the source give for `Cc1nc(O)c2c(n1)CCN(c1nc(C)nc(O)c1[N+](=O)[O-])CC2` [Example 5, 7-(6-Hydroxy-2-methyl-5-nitro-pyrimidin-4-yl)-2-methyl-6,7,8,9-tetrahydro-5H-pyrimido[4,5-d]azepin-4-ol] here?
A: > 200 °C

Q: For `Cc1nc(N2CCc3ncsc3CC2)c([N+](=O)[O-])c(=O)[nH]1` [Example 6, 2-Methyl-5-nitro-6-(4,5,7,8-tetrahydro-thiazolo[4,5-d]azepin-6-yl)-3H-pyrimidin-4-one], which IC50 (rat mGluR1a receptor) is on record?
A: 43 µM

Q: Which melting point does the source give for `Cc1nc(O)c([N+](=O)[O-])c(N2CCc3cncnc3CC2)n1` [Example 7, 2-Methyl-5-nitro-6-(5,6,8,9-tetrahydro-pyrimido[4,5-d]azepin-7-yl)-pyrimidin-4-ol] here?
A: > 200 °C

Q: Which melting point does the source give for `Cc1nc(N2CCc3ccsc3CC2)c([N+](=O)[O-])c(=O)[nH]1` [Example 9, 2-Methyl-5-nitro-6-(4,5,7,8-tetrahydro-thieno[2,3-d]azepin-6-yl)-3H-pyrimidin-4-one] here?
A: > 200 °C

Q: And the IC50 (rat mGluR1a receptor)?
A: 1.9 µM

Reference: patent US6369222B1, “mGluR antagonists and a method for their synthesis” (Hoffmann-La Roche Inc., priority 2000, dated 2002)
